Results on 18 molecules are retold here after ChEMBL document CHEMBL1154877, “An expeditious synthesis and anticancer activity of novel 4-(3'-indolyl)oxazoles” (Eur J Med Chem, 2010).

Common to all, as to format: functional, cell-based
The nature of experiment [1]: Cytotoxicity against human MDA231 cells after 48 hrs by MTT assay. Particulars: MDA-MB-231, 48 h. On the technique in general: Tetrazolium assays rely on reduction of a dye to a coloured formazan, in cell work by metabolically active cells.
A further experiment has as its system LNCaP. As to the kind of experiment: Cytotoxicity against human LNCAP cells after 48 hrs by MTT assay.
The next experiment concerns DU-145. The experiment is described as follows: Cytotoxicity against human DU145 cells after 48 hrs by MTT assay. Particulars: DU-145, 48 h.
A further experiment concerns PC-3. As to the kind of experiment: Cytotoxicity against human PC3 cells after 48 hrs by MTT assay. As to conditions: PC-3, 48 h.
The test system of the next experiment is MIA PaCa-2. The experiment is described as follows: Cytotoxicity against human MIAPaCa2 cells after 48 hrs by MTT assay. As to conditions: MIA PaCa-2, 48 h.
In the next experiment the test system is MCF7. As to the kind of experiment: Cytotoxicity against human MCF7 cells after 48 hrs by MTT assay. Particulars: MCF7, 48 h.

A word on the IC50: it is the concentration that gives 50% inhibition. The low end stands for greater potency in that assay, the high end for weaker potency in that assay. `C(=C\c1nc(-c2c[nH]c3ccccc23)co1)/c1ccccc1`: the IC50 is 1000 µM in experiment [1]; 183 µM in the experiment on LNCaP; 135 µM in the experiment on DU-145; 221 µM in the experiment with PC-3; 872 µM with MIA PaCa-2; 355 µM in the experiment on MCF7.

Turning to `Oc1ccc(-c2nc(-c3c[nH]c4ccccc34)co2)cc1`, the concentration for half-maximal inhibition (IC50) in experiment [1] was 1000 µM; in the experiment on LNCaP it was 449 µM; in the experiment with DU-145, 247 µM; in the experiment on PC-3, 382 µM; in the experiment with MIA PaCa-2, 1000 µM; in the experiment with MCF7, 580 µM.

For `c1ccc2c(-c3coc(-c4ccncc4)n3)c[nH]c2c1`, the IC50 in experiment [1] was found to be 105 µM; with LNCaP, 238 µM; in the experiment on DU-145, 178 µM; with PC-3, 298 µM; with MIA PaCa-2, 38.4 µM; with MCF7, 54.9 µM.

For `COc1cc(-c2nc(-c3c[nH]c4ccccc34)co2)ccc1O`, the IC50 in experiment [1] stood at 1000 µM; in the experiment with LNCaP, 445 µM; in the experiment with DU-145, 175 µM; in the experiment on PC-3, 303 µM; in the experiment on MIA PaCa-2 it was 1000 µM; with MCF7 it was 1000 µM.

`COc1cc(-c2nc(-c3cn(C)c4ccccc34)co2)ccc1OCc1ccccc1`: the IC50 in experiment [1] is 1000 µM; in the experiment with LNCaP, 368 µM; with DU-145 it was 382 µM; in the experiment on PC-3, 450 µM; in the experiment with MIA PaCa-2, 318 µM; in the experiment with MCF7, 198 µM.

Regarding `COc1ccc(-c2nc(-c3c[nH]c4ccccc34)co2)cc1`, the IC50 in experiment [1] is 108 µM; with LNCaP, 507 µM; in the experiment with DU-145 it was 164 µM; in the experiment with PC-3 it was 133 µM; in the experiment with MIA PaCa-2 it was 35 µM; in the experiment with MCF7 it was 43.8 µM.

Take `Clc1ccc(Cn2cc(-c3coc(-c4ccc(Cl)cc4)n3)c3ccccc32)cc1`: the half-maximal inhibitory concentration (IC50) in experiment [1] was 216 µM; in the experiment on LNCaP it was 182 µM; with DU-145, 80.5 µM; with PC-3 it was 350 µM; with MIA PaCa-2 it was 26 µM; with MCF7 it was 14.1 µM.

Take `Clc1ccc(-c2nc(-c3c[nH]c4ccccc34)co2)cc1`: the IC50 came out at 608 µM in experiment [1]; 505 µM in the experiment with LNCaP; 206 µM with DU-145; 151 µM in the experiment on PC-3; 326 µM with MIA PaCa-2; 410 µM in the experiment with MCF7.

Consider `Fc1ccc(-c2nc(-c3c[nH]c4ccccc34)co2)cc1`, for which the IC50 came to 90.4 µM in experiment [1]; 59.8 µM in the experiment on LNCaP; 31.8 µM in the experiment on DU-145; 42.8 µM with PC-3; 40.6 µM in the experiment with MIA PaCa-2; 28 µM with MCF7.

In the case of `c1ccc(Cc2nc(-c3c[nH]c4ccccc34)co2)cc1`, the concentration for half-maximal inhibition (IC50) in experiment [1] is 1000 µM; in the experiment on LNCaP, 377 µM; in the experiment with DU-145, 349 µM; in the experiment on PC-3 it was 368 µM; in the experiment with MIA PaCa-2 it was 1000 µM; in the experiment on MCF7, 1000 µM.

With `Cn1cc(-c2coc(C3CCNCC3)n2)c2ccccc21`, the IC50 in experiment [1] came out at 1000 µM; with LNCaP it was 400 µM; in the experiment with DU-145, 376 µM; in the experiment with PC-3, 578 µM; in the experiment with MIA PaCa-2, 759 µM; with MCF7, 1000 µM.

For the molecule `c1ccc(-c2nc(-c3c[nH]c4ccccc34)co2)cc1`, the 50% inhibitory concentration (IC50) in experiment [1] was 171 µM; in the experiment with LNCaP, 461 µM; in the experiment with DU-145, 167 µM; in the experiment on PC-3, 170 µM; in the experiment on MIA PaCa-2, 113 µM; in the experiment with MCF7, 131 µM.

For `c1ccc2c(-c3coc(C4CCNCC4)n3)c[nH]c2c1`, the IC50 in experiment [1] worked out at 528 µM; with LNCaP it was 476 µM; in the experiment on DU-145 it was 381 µM; in the experiment on PC-3, 407 µM; in the experiment on MIA PaCa-2, 230 µM; in the experiment with MCF7, 294 µM.

On to `COc1ccc(-c2nc(-c3c[nH]c4ccccc34)co2)cc1OC`, for which the IC50 in experiment [1] came out at 1000 µM; in the experiment with LNCaP it was 278 µM; in the experiment with DU-145, 300 µM; in the experiment with PC-3, 359 µM; in the experiment on MIA PaCa-2, 1000 µM; in the experiment on MCF7, 759 µM.

Consider `Cc1nc(-c2c[nH]c3ccccc23)co1`, for which the IC50 in experiment [1] was determined as 1000 µM; in the experiment on LNCaP, 316 µM; in the experiment with DU-145, 244 µM; in the experiment with PC-3, 337 µM; in the experiment with MIA PaCa-2 it was 688 µM; with MCF7, 802 µM.

`C=Cc1nc(-c2c[nH]c3ccccc23)co1`: the concentration for half-maximal inhibition (IC50) in experiment [1] came out at 1000 µM; with LNCaP, 530 µM; in the experiment on DU-145, 59.8 µM; in the experiment with PC-3, 426 µM; with MIA PaCa-2 it was 37.6 µM; in the experiment on MCF7, 1000 µM.

Take `Cn1cc(-c2coc(-c3ccc(Cl)cc3)n2)c2ccccc21`: the IC50 in experiment [1] came to 790 µM; in the experiment on LNCaP it was 378 µM; with DU-145, 412 µM; in the experiment on PC-3 it was 302 µM; in the experiment with MIA PaCa-2, 89.2 µM; in the experiment with MCF7, 637 µM.

On to `c1ccc2c(-c3cocn3)c[nH]c2c1`, for which the IC50 amounted to 1000 µM in experiment [1]; 382 µM with LNCaP; 93.5 µM in the experiment on DU-145; 321 µM in the experiment with PC-3; 1000 µM with MIA PaCa-2; 1000 µM in the experiment on MCF7.
